Measurements as given in patent EP0933027A1, “Methods and compositions for protecting animals and humans against attack and infestation by arthropod and helminth parasites” (American Cyanamid Company, priority 1998, dated 1999).
Like-named read-outs stand apart in the source and are kept apart here.

Test system: Bovicola spp.
Experiment: Coated vial test against adult biting louse
Conditions: for mortality at 2 µg/cm2: dose 2.0 µg/cm^2; for mortality at 6.1 µg/cm2: dose 6.1 µg/cm^2
Procedure: This test is designed to evaluate the activity of test compounds against the biting louse. Test compounds are dissolved in 100% acetone to 300, 100 and 10 ppm. 100 µL of each of these dilutions is added to the bottom of a 20 mL glass scintillation vial with a pipettor. The vial is allowed to dry under a fume hood for 15 minutes. The bottom of the vial measures 4.909 cm^2. The amount of test compound applied by each dilution equals 6.1, 2.0 and 0.2 µg/cm^2, respectively. Included in all tests are two to three replications of untreated vials. Lice are collected from the host animal and are used within 4 hours. The lice are counted into the scintillation vials with a slightly damp paintbrush. Five adult lice are placed in each vial. These tests are done in replicates of two or three so that there are 10 to 15 lice per rate/compound. Mortality readings are taken at 2 and 4 hours after placing the lice in the vials. To read the test, the vial is placed under a magnifying glass. […] Percent mortality is then calculated for each treatment.

[1] = 2 hours, read-out: 2 Hour % Mortality
[2] = 4 hours, read-out: 4 Hour % Mortality

F/C(=C\Cc1ccc(F)c(Oc2ccccc2)c1)C(c1ccc(Cl)cc1)C1CC1 (stereo not shown) [Compound 5, 1-[1-(p-Chlorophenyl)-2-fluoro-4-(4-fluoro-3-phenoxyphenyl)-2-butenyl]cyclopropane, (Z)-]
mortality at 2 µg/cm2 [1]: 92% | mortality at 2 µg/cm2 [2]: 100% | mortality at 6.1 µg/cm2 [1]: 100% | mortality at 6.1 µg/cm2 [2]: 100%
